Reference: publication PMC12575728, “Galactose-modified small molecule modulator targets RORα to enhance circadian rhythm and alleviate periodontitis-associated alveolar bone loss” (Bone Research, 2025)

Experiments:
[1] = test system: jet lag mice; assay: Clock gene mRNA in liver of jet lag mice; format: in vivo; settings: mice with disordered circadian rhythms
Procedure: (§1) RNA from liver, periodontal tissues and cell samples was prepared as previously described. Total RNA (1 ug) was synthesized into cDNA using […] (Vazyme). mRNA expression levels were normalized to GAPDH. Relative expression levels and enrichment contents were calculated using the comparative Ct Method. Primer information is detailed in Data file S1.
(§2) Male C57BL/6 mice,[40] 2 months old, were housed under disrupted conditions for 4 weeks. From the third week, they were intraperitoneally injected with Gala-SR, SR1078, or DMSO for 3 weeks. In the fifth week, general anesthesia was administered via intraperitoneal injection of pentobarbital sodium (40 mg/kg), and a ligature was placed around the cervix of the maxillary second molar to establish the murine periodontitis model. Collect gingival tissue and liver tissue every 6 h continuously for a duration of 48 h.

[2] = test system: BMAL1; assay: BMAL1 immunofluorescence in synchronized U2OS cells; format: cell-based, human; settings: 5 µmol/L
Procedure: U2OS cells were seeded on coverslips and treated with drugs for 24 h. After treatment, the cells were washed 3 times with PBS and fixed with 4% paraformaldehyde at room temperature for 15 min. The cells were then permeabilized with 0.1% Triton X-100 (diluted in PBS) and blocked with 5% BSA (diluted in PBS) at room temperature for 30 min. Primary antibodies were incubated overnight at 4 °C. The next day, the cells were washed 3 times with PBST and incubated with Cy3-conjugated Affinipure Goat Anti-Rabbit IgG(H + L) secondary antibody (1:200) at room temperature for one hour, with DAPI added to stain the nuclei. After washing 3 times with PBST, images were captured using a laser confocal microscope (Nikon A1-Si).

[3] = test system: periodontitis mice with circadian rhythm disorders; assay: Ligature-induced periodontitis in circadian rhythm disordered (jet lag) mice; format: in vivo; settings: for periodontal tissue destruction (HE staining): compared to DMSO-treated controls; for rhythmic expression of circadian genes in periodontal tissue: jet lag mice, 10 mg/kg IP daily for three weeks; for alveolar bone resorption (Micro-CT): jet lag periodontitis mice, 10 mg/kg IP daily, compared to DMSO; for IL-10-positive cell populations / NF-κB pathway mediators Tnf-α and Il-6: periodontal tissue; for TRAP-positive cell numbers (osteoclastic activity): relative to DMSO-treated periodontitis controls
Text: Periodontitis has the highest incidence rate among all oral diseases and is a major cause of adult tooth loss. […] It is also reported that the inflammatory signaling pathways in periodontal tissue is over activated in periodontitis mice with circadian rhythm disorder.[40] Given this, we have substantial grounds to hypothesize that the restoration of circadian rhythms could potentially ameliorate periodontitis. According to our assumption, periodontal inflammation in circadian rhythm-disordered mice is more critical than in control mice under L:D conditions, resulting in a more severe alveolar bone resorption. Administration of Gala-SR and SR1078 is expected to restore the circadian rhythm, thereby alleviating the inflammation and reducing the alveolar bone absorption (Fig. 6a). […] The mice were initially subjected to a one-week L:D feeding regimen, followed by exposure to disordered conditions for four weeks. At the beginning of the third week, the mice received intraperitoneal injections of Gala-SR or SR1078 (10 mg/kg) or the equivalent amount of DMSO utilized to dissolve these modulators every day for three consecutive weeks. Mice without any treatment and mice treated with DMSO but kept in L:D condition were also set for controls. By the end of the fourth week, a ligature-induced periodontitis model was established as previously described,[39] and samples at different time points were collected one week later for subsequent tests (Fig. 6b).
Alveolar bones were harvested from mice and fixed after removal of soft tissues. The bones were then scanned at a resolution of 9 μm using Micro-CT (SkyScan 1176, Bruker). Images were reconstructed and quantified using InstaRecon/NRecon Research Workplace software. Metrics such as bone volume/total volume, trabecular thickness, bone surface area/bone volume, trabecular number, trabecular separation, and buccal-lingual alveolar bone resorption were used to assess differences among the mice.
as §2

[4] = test system: RORα; assay: G6Pase and Fgf21 mRNA in mouse liver after IP injection; format: in vivo, mice; settings: 10 mg/kg IP, liver collected 24 h after injection
Procedure: as §1

[5] = test system: human U2OS cells; assay: CCK-8 assay and live-dead staining; format: cell-based; settings: 1-100 μmol/L, 24, 48, 72 h, pronounced above 10 μmol/L
Procedure: U2OS cells were seeded at a density of 10 000 cells per well in a 96-well plate, with 100 μL of culture medium added to each well. The cells were incubated at 37 °C in a 5% CO2 atmosphere for 24 h or until they reached the logarithmic growth phase. Following this, the cells were treated with SR1078, Gala-SR, Malt-SR, and Mann-SR and incubated for 24, 48, and 72 h. 10 μL of CCK-8 reagent was added to each well, and the plate was returned to the incubator for an additional 1–4 h. Absorbance at 450 nm was then measured using a microplate reader. The average absorbance for each well was calculated, and relative cell viability was determined by comparing the absorbance values to those of the control group.
332 Figure S25. After U2OS cells were treated with various concentrations (0 ~ 50 μM) of SR1078,
333 Gala-SR, Malt-SR, and Mann-SR for 24 hours, live and dead cells were labeled using the
334 Calcein-AM/PI double-staining method. Scale bar: 50 μm.
Body weight changes (%) in
338 C57BL/6J mice (n = 4) after 7 days of administration of Gala-SR, SR1078, or DMSO at doses of 10
339 mg/kg and 50 mg/kg via IP were measured. […]

[6] = molecular target: T1, RORα (Homo sapiens, UniProt P35398); assay: Luciferase reporter assay (G6Pase or FGF21 promoter) in HEK293T cells cotransfected with RORα; format: cell-based; settings: HEK293T, RORα; for luminescence of G6Pase and FGF21 luciferase reporters: vs DMSO
T1 construct: HEK293T cells co-transfected with a full-length RORα gene and a luciferase reporter gene; expressed in transfected cells; host or cells: HEK293T
T1 sequence (P35398 1-523): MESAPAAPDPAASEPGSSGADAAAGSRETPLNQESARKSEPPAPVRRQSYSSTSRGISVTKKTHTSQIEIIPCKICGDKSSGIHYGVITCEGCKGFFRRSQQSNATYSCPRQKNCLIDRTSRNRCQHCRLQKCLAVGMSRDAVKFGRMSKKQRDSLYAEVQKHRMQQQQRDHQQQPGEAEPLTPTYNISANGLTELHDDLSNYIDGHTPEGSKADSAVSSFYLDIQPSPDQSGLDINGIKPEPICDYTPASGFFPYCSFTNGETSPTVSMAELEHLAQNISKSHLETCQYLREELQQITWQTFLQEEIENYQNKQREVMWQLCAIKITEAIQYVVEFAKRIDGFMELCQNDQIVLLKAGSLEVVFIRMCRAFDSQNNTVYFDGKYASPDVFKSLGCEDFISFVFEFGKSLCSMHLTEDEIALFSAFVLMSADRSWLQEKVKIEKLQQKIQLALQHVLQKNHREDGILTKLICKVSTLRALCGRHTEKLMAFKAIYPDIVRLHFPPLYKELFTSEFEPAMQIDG
Procedure: HEK293T cells were transfected with Lipofectamine 8000 (ThermoFisher) strictly following the manufacturer’s instructions. Cotransfected HEK293T cells with RORα or RORγ plasmid and a reporter consisting of the G6Pase or FGF21 promoters upstream of a luciferase reporter gene. 500 ng plasmid DNA was transfected into each well of 24 well-plate 24 h after the transfection, DMSO or Gala-SR and SR1078 (5 µmol/L) was added and incubated for 24 h. The Lumicycle instrument detects luminescence and records the numerical value.

How did the “circadian rhythm of clock gene expression in liver tissue” value [1] turn out when `O=C(Nc1ccc(C(OCO[C@@H]2O[C@H](CO)[C@H](O)[C@H](O)[C@H]2O)(C(F)(F)F)C(F)(F)F)cc1)c1ccc(C(F)(F)F)cc1` [Gala-SR] was run?
Its value is “effectively restored”.

And the “expression of BMAL1 (immunofluorescence)” value [2]?
The value was “enhance the expression of BMAL1”.

And the “periodontal tissue destruction (HE staining)” value [3]?
Its value is “attenuated periodontal tissue destruction”.

What about the “rhythmic expression of circadian genes in periodontal tissue” value [3] of the same compound?
The value was “restored their rhythmic expression”.

What about the “alveolar bone resorption (Micro-CT)” value [3] of the same compound?
Its value is “significantly reduced alveolar bone resorption”.

What about the IL-10-positive cell populations [3] of the same compound?
The IL-10-positive cell populations was “markedly increased”.

What about the “NF-κB pathway mediators Tnf-α and Il-6” value [3] of the same compound?
Its value is “significantly downregulated”.

And the “TRAP-positive cell numbers (osteoclastic activity)” value [3]?
Its value is “marked reduction”.

What about the “G6Pase and FGF21 expression in mice liver compared to SR1078” value [4] of the same compound?
The value was “significantly upregulated”.

And the “cytotoxicity / cell compatibility” value [5]?
The value was “superior among all the evaluated groups”.

What about the “expression of G6Pase and FGF21 luciferase reporter genes compared to SR1078” value ([6]; 5 μmol/L) of the same compound?
Its value is “substantially elevated expression”.

What about the “activation of luciferase reporters, with galactosidase inhibitor” value ([6]; 5 μmol/L Gala-SR + β-galactosidase inhibitor, vs Gala-SR alone) of the same compound?
Its value is “significantly decreased compared to the original level”.

What about the “expression of G6Pase and FGF21 luciferase reporter genes, combined with galactosidase” value ([6]; 5 μmol/L Gala-SR + β-galactosidase, vs Gala-SR alone) of the same compound?
Its value is “significantly enhanced expression”.

And the “luminescence of G6Pase and FGF21 luciferase reporters” value ([6]; 5 μmol/L)?
The value was “marked augmentation in the luminescence”.

Which results are given for `O=C(Nc1ccc(C(O)(C(F)(F)F)C(F)(F)F)cc1)c1ccc(C(F)(F)F)cc1` [SR1078, reference compound]?
expression of BMAL1 (immunofluorescence) [2]: enhance the expression of BMAL1; periodontal tissue destruction (HE staining) [3]: attenuated periodontal tissue destruction; rhythmic expression of circadian genes in periodontal tissue [3]: restored their rhythmic expression; alveolar bone resorption (Micro-CT) [3]: significantly reduced alveolar bone resorption; IL-10-positive cell populations [3]: markedly increased; NF-κB pathway mediators Tnf-α and Il-6 [3]: significantly downregulated; TRAP-positive cell numbers (osteoclastic activity) [3]: marked reduction; luminescence of G6Pase and FGF21 luciferase reporters ([6]; 5 μmol/L): marked augmentation in the luminescence
